Source: US20240016795A1, “BROMODOMAIN INHIBITORS FOR ANDROGEN RECEPTOR-DRIVEN CANCERS” (FORMA Therapeutics, Inc., priority 2020, published 2024)
Like-named read-outs stand apart in the source and are kept apart here.

Experiments:
HCC1500 = experiment: 10-day CellTiter-Glo antiproliferative assay, HCC1500; format: cell-based; conditions: HCC1500, 240 h, 10-day exposure, AR High, ER +, Her2 −
Protocol: (§1) Breast cell lines were cultured according to the distributor's recommendations. The following day, cells were exposed to compounds up to 10 days. Cell viability was assessed using a CellTiter-Glo® assay (Promega) at the end of the incubation period. The growth inhibitory effect was assessed by the concentration inhibiting growth by 50% using a nonlinear regression equation and a variable slope (Graphpad Prism). The mRNA expression levels for the androgen receptor (HUGO: AR) was determined from the DepMap Portal database (release 19Q2).

BT549 = experiment: 10-day CellTiter-Glo antiproliferative assay, BT549; format: cell-based; conditions: Homo sapiens, BT-549, 240 h, 10-day exposure, AR Low, ER −, Her2 −
Protocol: as §1

MFM223 = experiment: 10-day CellTiter-Glo antiproliferative assay, MFM223; format: cell-based; conditions: Homo sapiens, MFM-223, 240 h, 10-day exposure, AR Low, ER −, Her2 −
Protocol: as §1

22Rv1 = experiment: 10-day prostate cancer cell proliferation assay, 22Rv1; format: cell-based; conditions: Homo sapiens, 22Rv1, 240 h
Protocol: (§2) Prostate cell lines were obtained from ATCC or DSMZ and cultured according to the distributor's recommendations. Prostate cancer cells were plated and incubated overnight. […] Cell viability was assessed using a CellTiter-Glo® assay (Promega) after 10 days drug exposure. The growth inhibitory effect was assessed by the concentration inhibiting growth by 50% using a nonlinear regression equation and a variable slope (Graphpad Prism).

PC-3 = experiment: 10-day prostate cancer cell proliferation assay, PC-3; format: cell-based; conditions: Homo sapiens, PC-3, 240 h; 10 days exposure; AR negative
Protocol: as §2

DU 145 = experiment: 10-day prostate cancer cell proliferation assay, DU 145; format: cell-based; conditions: Homo sapiens, DU-145, 240 h; 10 days exposure; AR negative
Protocol: as §2

[1] = test system: AR-negative prostate cancer cell lines DU145 and PC-3; experiment: 10-day proliferation assay, AR-negative prostate cancer cell lines; format: cell-based; conditions: 10-day assay
Protocol: Two AR-negative prostate cancer cell lines DU145 and PC-3 were also evaluated.
as §2

TMPRSS2 [2] = experiment: Taqman gene expression in AR-positive breast cancer cells, TMPRSS2; format: cell-based; conditions: 24 hours, read-out: IC50, TMPRSS2 mRNA
Protocol: (§3) AR-positive breast cancer cells were exposed to increasing concentrations of compounds for 24 hours. RNA was extracted and gene expression measured using Taqman® assays for TMPRSS2 and XBP1.

XBP1 = experiment: Taqman gene expression in AR-positive breast cancer cells, XBP1; format: cell-based; conditions: 24 hours, read-out: IC50, XBP1 mRNA
Protocol: as §3

TMPRSS2 [3] = experiment: qPCR gene expression in AR-v7+ prostate cancer cells, TMPRSS2; format: cell-based; conditions: 24 h
Protocol: AR-v7+ prostate cancer cells were exposed to compounds 1, 2, 3, or 4 for 24 h. RNA was extracted and gene expression was measured by qPCR using Taqman® primer-probes. GAPDH was used as a housekeeping gene.

SORD [4] = experiment: qPCR gene expression in VCaP, SORD; format: cell-based; conditions: Homo sapiens, 24 h
Protocol: (§4) RNA was extracted using Qiacube RNAeasy Mini (Qiagen). For all genes tested, the qPCR reactions were carried out in triplicate with 250 ng RNA per reaction and Taqman® primer-probes. GAPDH was used as a housekeeping gene.

MYC = experiment: qPCR gene expression in 22Rv1, MYC; format: cell-based; conditions: Homo sapiens, 22Rv1, 24 h
Protocol: as §4

SORD [5] = experiment: qPCR gene expression in 22Rv1, SORD; format: cell-based; conditions: Homo sapiens, 22Rv1, 24 h
Protocol: as §4

H3K27Ac = H3K27Ac western blot in MDA-MB-453 cells; format: cell-based; conditions: MDA-MB-453, 24 hrs, western blot
Protocol: H3K27Ac is a specific mark of CBP/p300 activity and thus offers a means to directly assess the impact of CBP/p300 inhibition in cells.
MDA-MB-453 cells were plated overnight and exposed to the compounds for 24 hours. Lysates were prepared from the cells in E-PAGE loading buffer (Invitrogen) and analyzed by western blot with antibodies diluted 1:1000 for anti-H3K27Ac, 1:2000 for anti-total H3 and 1:10,000 for anti-β actin. The blots were scanned and analyzed on a LI-COR Odyssey image analyzer. H3K27Ac levels were normalized to β-Actin.
Finally, a washout experiments was carried out with compound 4 to assess the recovery of the biomarker after removal of the compound. […] Lysates were prepared and analyzed by western blot, as described above.

[6] = test system: patient-derived xenograft (PDX) model of AR+ prostate cancer sensitive to enzalutamide; experiment: Patient-derived xenograft of prostate cancer sensitive to enzalutamide; format: in vivo, NOG mice; conditions: Compound 1 40 mg/kg/day, enzalutamide 20 mg/kg/day
Protocol: The antitumor activity was determined based by tumor volume during the course of the study.
Male NOG mice (6-8 weeks of age) were implanted with tumor fragments. When tumors reached an average tumor volume of 150-200 mm^3 animals were randomized into different cohort groups and dosing initiated on the same day (Day 0). Animals were weighed twice weekly.
[…] 11.

`COC(=O)N1c2ccc3c(nc([C@H](O)c4cc(F)ccc4OC)n3[C@@H]3CCC[C@@H](C(=O)O)C3)c2CC[C@@H]1C` [Compound 1, (1R,3R)-3-[(7S)-2-[(R)-(5-fluoro-2-methoxyphenyl)(hydroxy)methyl]-6-(methoxycarbonyl)-7-methyl-3H,6H,7H,8H,9H-imidazo[4,5-f]quinolin-3-yl]cyclohexane-1-carboxylic acid] was tested, and the IC50 (HCC1500) was 0.5 to 1 µM, the IC50 (BT549) was greater than 1 µM and the IC50 (MFM223) was greater than 1 µM. For the same compound, the IC50 (22Rv1; 10-day assay, read-out: anti-proliferative effect (IC50), 22Rv1) was 500 to 1000 nM, the IC50 (22Rv1; 10 days exposure, H857Y/H857Y, AR v7+, androgen-independent, read-out: IC50, 22Rv1) was 500 to 1000 nM and the IC50 (PC-3) was greater than 1000 nM. For the same compound, the IC50 (DU 145) was greater than 1000 nM, the “antiproliferative effect, AR-negative cell lines” value [1] was “inactive” and the IC50 (TMPRSS2 [2]) was less than 100 nM. For the same compound, the IC50 (XBP1) was less than 100 nM, the IC50 (TMPRSS2 [3]) was less than 10 nM and the IC50 (SORD [4]) was greater than 0.1 µM. The IC50 (MYC) was greater than 0.1 µM, the IC50 (SORD [5]) was greater than 0.1 µM and the H3K27Ac level (H3K27Ac) was “concentration dependent reduction”. The “AR target gene SPDEF expression in tumor” value ([6]; four days) was “reduced”, the H3K27Ac in tumor ([6]; four days) was “reduction of H3K27Ac” and the “TGI at the end of study” value ([6]; start of dosing to day 59) was “comparable”.
